“And” between values parts separate entries of the source, which are not always exact repeats. Equal entries are not always repeated. Values belong to the compound of their own block, whether it stands above or below them.
Tests used:
[1] = Effect on iron absorption in vivo of maltol as a diet supplement (liver iron); set-up: species or system Male Wistar rats; settings: for Liver Fe: rats fed maltol 50 mg/kg by gavage on alternate days, individual animals 1-6; for Liver Fe, MEAN: rats fed maltol 50 mg/kg
Description: Male Wistar rats, housed in polyethylene cages, initially weighing 70-80 grams were given a normal powder diet and water ad libitum for two weeks prior to treatment with maltol by gavage. Provided the animal was showing normal growth, treatment by gavage with maltol at 50 mg/kg was commenced and continued on alternate days for a further two weeks. At the end of the experimental period the animals were sacrificed, the livers were excised, mass determined and the sub cellular fraction assayed for iron be electrothermal atomic absorption. […]. The iron content of the diet is 240 mg/kg of food and the daily consumption of the rats is approximately 20 g which contains 4.8 mg as iron. The content of maltol in the diet is approximately 10 mg which is a ratio of iron/maltol of 4.8/10.0 which is approximately a 1:1 molar ratio (actual 1:1 is 4.5/10/0).
The liver content and concentration of iron in the sub cellular fraction were compared with the control group fed the same diet over the month, but without maltol.

[2] = In vivo test in man: ICPOES analysis for iron in serum; settings: for Iron concentration [Fe] (s.d.) in serum: man, with 10% excess maltol
Excerpt: A composition of the invention comprising ferric maltol chloride ([FeM]^++Cl2−) ie. a 1:1 iron:hydroxypyrone complex together with a small (10%) excess of moltol (uncomplexed hydroxypyrone).

[3] = In vivo test in man: plasma iron concentration by ICP after oral ferric monomaltol citrate; settings: time 0 mins (resting value)
Description: A composition of the invention comprising ferric monomaltol citrate with 30 mg as iron in 5 ml of water was administered orally to a person who had fasted for 24 hours. The plasma iron concentration in the subject's bloodstream was determined by the ICP [inductively coupled plasma, (Machine Jobin Yvonne Modol 20)] technique which determines the emission spectra of elements by optical spectrometry when samples are subjected to a very hot flame. The technique is very sensitive and the accuracy and precision is less than +or −1%.

[4] = Tests to determine optimum pH and molar ratios of iron:hydroxypyrone for synthesis of the 1:1 complex; format: physicochemical; settings: pH 1-2
Description: Further tests to determine the optimum pH and molar ratios of iron:hydroxypyrone for synthesis of the 1:1 complex were carried out using iron:hydroxypyrone (maltol) ratios of 1:1.1, 1:1.15 and 1:1.25. For each ratio concentrations of 1M, 0.1M and 0.01M were tested. In the tests iron was used in an aqueous form.

red blood cell = assay: Initial toxicity studies: red blood cell haemolysis; format: cell-based; settings: liquid formulations
[5] = Solubility of iron complexes and mixtures (description); format: physicochemical; settings: for solubility relative to the 1:3 iron/hydroxypyrone molar ratio complex: 1:1 complexes
[6] = pH and stability of solutions of the complexes (description); format: physicochemical; settings: for stability in solution: buffered pH of 7
[7] = Stability of the 1:1 molar ratio complex of iron and hydroxypyrone (visual precipitates, UV-V spectroscopy); format: physicochemical
Description: Various solutions of iron (III),and hydroxypyrone (ethylmaltol) were buffered to pH 7 with 50 mM morpholine propane sulphonate (MOPS) 50 mM, to pH 5 with sodium acetate (50 mM) and to pH 3 with glycine (50 mM). Iron III nitrate 9 H2O was used as a source of iron.

- iron conc (plasma) ([3]; 30 mg as iron in 5 ml water, fasted 24 hours): 1.2 µg/mL
- iron conc (plasma) ([3]; 30 mg as iron): 21.8 µmol/L
Compound: Cc1occc(=O)c1[O-].O=C([O-])CC(O)(CC(=O)O)C(=O)[O-].[Fe+3] [ferric monomaltol citrate]

- proportion of the solution that comprises the 1:1 complex [4]: ~80%
- iron uptake ([2]; in vivo, po): taken up well
- solubility relative to the 1:3 iron/hydroxypyrone molar ratio complex [5]: approximately ten times more soluble
- solubility ([5]; pH 1-2): very soluble
- natural pH ([6]; solution): approximately 2.8
Compound: Cc1occc(=O)c1[O-].[Fe+3] [ferric monomaltol]
- red blood cell haemolysis and breakdown (red blood cell): do not cause red blood cell haemolysis and red blood cell breakdown
- stability in solution [6]: stability for extended periods (for example six months)

- solubility relative to the 1:3 iron/hydroxypyrone molar ratio complex [5]: approximately ten times more soluble
- stability of solutions ([7]; 0.1M, 0.01M and 0.001M, pH 3, 5 and 7): stable for up to two months
Compound: CCc1occc(=O)c1[O-].[Fe+3] [iron ethyl maltol]
- formation of ferric triethylmaltol (1:3 complex) ([7]; wide concentration range, up to pH 7): no ferric triethylmaltol is found even at pH 7

More lines, now with the values behind:

Compound: Cc1occc(=O)c1O [Maltol, 3-hydroxy-2-methyl-4-pyrone]
- Liver Fe ([1]; iron concentration, µg per g liver): 118.8 µg/g and 113.2 µg/g and 87.3 µg/g and 165.8 µg/g and 149.2 µg/g and 123.4 µg/g
- Liver Fe ([1]; total iron, mg per liver): 1.44 mg/liver and 1.14 mg/liver and 0.86 mg/liver and 1.87 mg/liver and 1.69 mg/liver and 1.25 mg/liver
- Liver Fe, MEAN ([1]; mean of 6 animals (control 1.06 ± 0.25)): 1.38 ± 0.37 mg/liver
- Liver Fe, MEAN ([1]; mean of 6 animals (control 120.1 ± 30.2)): 126.3 ± 27.7 µg/g
- change in liver iron content versus control ([1]; rats, maltol 50 mg/kg by gavage): small but significant increase

Compound: Cc1occc(=O)c1[O-].[Cl-].[Cl-].[Fe+3] [ferric maltol chloride]
- Iron concentration [Fe] (s.d.) in serum ([2]; time 0 min, n = 2): 1188.81 (17.57) ppb
- Iron concentration [Fe] (s.d.) in serum ([2]; time 20 min, n = 2): 1387.66 (63.08) ppb
- Iron concentration [Fe] (s.d.) in serum ([2]; time 60 min, n = 2): 1600.62 (115.83) ppb
- Iron concentration [Fe] (s.d.) in serum ([2]; time 120 min, n = 1): 1312.74 (0) (n = 1) ppb

Compound: O=S(=O)([O-])[O-].[Fe+2] [ferrous sulphate, reference compound]
- stability in solution [6]: precipitate very rapidly

Reference: patent US6635631B2, “Iron compounds, compositions, methods of making the same and uses thereof” (Vitra Pharmaceuticals, Ltd., priority 1995, dated 2003)
